Measured values published in patent publication US20090012069A1, “Novel Antidiabetic Compounds” (priority 2004, published 2009).

What was measured:
[1] = tested on: Hamster of Syrian golden stain; assay: Serum triglyceride lowering activity in HF-HC diet fed Hamster of Syrian golden stain; assay type: in vivo; details: HF-HC diet hamsters, 3 mg/kg/day oral gavage, non-fasted serum on day 14, 1 hr after dose
Description: ii) Serum triglyceride and total cholesterol lowering activity in Hamster of Syrian golden stain:
Male and Female Hamster of Syrian golden stain were bred in Zydus animal house. All these animals were maintained under 12-hour light and dark cycle at 22±3 degree C. The protocol approved by Institutional Animal Ethics Committee is being used. Animals of 3-12 weeks age (80-150 gm body weight) were taken for study. Near the end of the acclimatization period, animals judged to be suitable for testing will bee weighed. […] Other animals were put on HF-HC (High fat and high cholesterol) diet for 14 days.
Each animal received a single dose of ZY compounds at 0.001 to 50 mg/kg/ as a carbomethoxy cellulose or polyethylene glycol in the evening administered as an oral gavage daily for 15 days. On day 14, after 1 hr of dose administration, non-fasted blood samples were collected in non heparinized capillary from animals for determination of total cholesterol (TC), triglyceride (TG) (Wieland, O. Methods of Enzymatic analysis. Bergermeyer, H., O., Ed., 1963. 211-214; Trinder, P. Ann. Clin. Biochem. 1969. 6: 24-27). Measurement of serum triglyceride and total cholesterol was done using commercial kits (Pointe Scientific.Inc.USA.) And on day 14 night all animals will be kept for fasting for 12-16 hours. On day 15, after 1 hour of dose administration fasted blood samples will be collected from animals for determination of high density lipoprotein (HDL), and low density lipoprotein (LDL) in serum. The animals will then be euthanized by carbon-dioxide asphyxia (and cervical dislocation, if necessary) and heart, kidney and liver will be resected and weighed.
(§1) Percentage reduction in triglycerides/total cholesterol were calculated according to the formula:
Percentage reduction(%)=(TT−TC)/TC*100
TC=Test day control group TT=Test day treated group.

Swiss albino mice = assay: Serum triglyceride lowering activity in Swiss albino mice; assay type: in vivo; details: male Swiss albino mice, 10 mg/kg/day orally for 6 days, serum 1 hour after dose on 6th day, fed state
Method: i) Serum Triglyceride and Total Cholesterol Lowering Activity in Swiss Albino Mice:
Male Swiss albino mice (SAM) were bred in Zydus animal house. All these animals were maintained under 12 hour light and dark cycle at 25±1° C. Animals were given standard laboratory chow (NIN, Hyderabad, India) and water ad libitum. SAM of 20-30 g body weight range was used. The protocol approved by Institutional Animal Ethics Committee is being used.
The test compounds were administered orally to Swiss albino mice at 0.001 to 50 mg/kg/day dose for 6 days. The compound was administered after suspending it in 0.25% CMC or dissolving it in water, when compound is water-soluble. Control mice were treated with vehicle (0.25% of Carboxymethyl cellulose; dose 10 ml/kg).
The blood samples were collected on 0th day and in fed state 1 hour after drug administration on 6th day of the treatment. The blood was collected in non heparinised capillary and the serum was analyzed for triglyceride and total cholesterol (Wieland, O. Methods of Enzymatic analysis. Bergermeyer, H., O., Ed., 1963. 211-214; Trinder, P. Ann. Clin. Biochem. 1969. 6: 24-27). Measurement of serum triglyceride and total cholesterol was done using commercial kits (Zydus-Cadila, Pathline, Ahmedabad, India).
as §1
[formula] • OC=Zero day control group value OT=Zero day treated group value • TC=Test day control group TT=Test day treated group

hPPAR α = target: T1, hPPAR α (Homo sapiens, UniProt Q07869); assay: In vitro hPPAR alpha activity (in-house protocol); assay type: cell-based; details: read-out: EC50 (PPAR alpha)
T1 sequence (Q07869 1-468): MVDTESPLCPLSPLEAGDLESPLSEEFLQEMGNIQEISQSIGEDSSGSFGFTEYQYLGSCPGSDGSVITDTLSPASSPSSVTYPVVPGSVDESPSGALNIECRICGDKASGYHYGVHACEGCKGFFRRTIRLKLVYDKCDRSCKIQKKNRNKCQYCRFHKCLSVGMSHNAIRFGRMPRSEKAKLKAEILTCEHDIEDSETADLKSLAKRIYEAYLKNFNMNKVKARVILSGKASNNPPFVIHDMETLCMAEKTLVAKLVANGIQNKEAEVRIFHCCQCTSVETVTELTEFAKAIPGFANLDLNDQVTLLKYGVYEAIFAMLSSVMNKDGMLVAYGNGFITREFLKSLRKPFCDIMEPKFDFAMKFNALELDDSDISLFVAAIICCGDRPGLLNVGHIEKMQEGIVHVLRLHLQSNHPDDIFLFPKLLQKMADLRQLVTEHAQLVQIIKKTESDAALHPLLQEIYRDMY
Method: (§2) In vitro hPPAR α & hPPARγ activities were determined as per in-house protocols and the results of representative compounds are provided below as a proof of the efficacies of the novel class of compounds disclosed above.

hPPARγ = target: T2, hPPARγ (Homo sapiens, UniProt P37231); assay: In vitro hPPAR gamma activity (in-house protocol); assay type: cell-based; details: read-out: EC50 (PPAR gamma)
T2 sequence (P37231 1-505): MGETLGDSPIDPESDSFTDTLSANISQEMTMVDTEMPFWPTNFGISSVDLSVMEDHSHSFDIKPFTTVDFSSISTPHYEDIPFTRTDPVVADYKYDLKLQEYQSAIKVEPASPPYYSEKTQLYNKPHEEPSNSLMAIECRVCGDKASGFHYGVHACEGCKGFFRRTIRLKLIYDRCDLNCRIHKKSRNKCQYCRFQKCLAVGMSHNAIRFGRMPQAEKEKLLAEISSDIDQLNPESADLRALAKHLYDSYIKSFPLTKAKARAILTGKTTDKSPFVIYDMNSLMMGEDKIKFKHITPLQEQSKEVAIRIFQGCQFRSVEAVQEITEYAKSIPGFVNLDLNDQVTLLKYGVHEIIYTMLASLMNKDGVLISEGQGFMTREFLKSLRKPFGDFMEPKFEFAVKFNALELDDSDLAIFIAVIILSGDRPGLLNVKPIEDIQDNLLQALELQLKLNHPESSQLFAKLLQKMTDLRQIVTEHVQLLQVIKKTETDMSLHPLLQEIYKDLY
Method: as §2

SMILES	EC50 (hPPAR α) [µM]	EC50 (hPPARγ) [µM]	% Triglyceride lowering [1] [%]	% Triglyceride lowering (Swiss albino mice) [%]
CC1(C(=O)O)OCC(c2ccc(OCCOc3ccc(Oc4ccccc4)cc3)cc2)CO1 (stereo not drawn) [Example 106, 2-Methyl-5-cis-{4-[2-(4-phenoxy-phenoxy)-ethoxy]-phenyl}-[1,3]dioxane-2-carboxylic acid]	–	–	50	–
Cc1ccc(-c2nc(CCOc3ccc(C4COC(C)(C(=O)O)OC4)cc3)c(C)o2)cc1 (stereo not drawn) [Example 100, 2-Methyl-5-trans-{4-[2-(5-methyl-2-p-tolyl-oxazol-4-yl)-ethoxy]-phenyl}-[1,3]dioxane-2-carboxylic acid]	–	–	–	44
CC1(C(=O)O)OCC(c2ccc(OCCc3ccc(OS(C)(=O)=O)cc3)cc2)CO1 (stereo not drawn) [Example 96, 5-cis-{4-[2-(4-Methanesulfonyloxy-phenyl)-ethoxy]-phenyl}-2-methyl-[1,3]dioxane-2-carboxylic acid]	–	–	41	–

Second part, led by results:

EC50 (hPPAR α) [µM]	EC50 (hPPARγ) [µM]	SMILES	% Triglyceride lowering [1] [%]	% Triglyceride lowering (Swiss albino mice) [%]
0.072	0.015	Cn1c(COc2ccc(CC3COC(C)(C(=O)O)OC3)cc2)nc2ccccc2c1=O (stereo not drawn) [Example 66, 2-Methyl-5-[4-(3-methyl-4-oxo-3,4-dihydro-quinazolin-2-ylmethoxy)-benzyl]-[1,3]dioxane-2-carboxylic acid]	–	40
1.09	0.096	Cc1oc(-c2ccccc2)nc1CCOc1ccc(CC2COC(C)(C(=O)O)OC2)cc1 (stereo not drawn) [Example 61, 2-Methyl-5-{4-[2-(5-methyl-2-phenyl-oxazol-4-yl)-ethoxy]-benzyl}-[1,3]dioxane-2-carboxylic acid]	30	23
0.6	0.0198	CC1(C(=O)O)OCC(Cc2ccc(OCCn3ccc4ccccc43)cc2)CO1 (stereo not drawn) [Example 70, 5-cis-[4-(2-Indol-1-yl-ethoxy)-benzyl]-2-methyl-[1,3]dioxane-1-carboxylic acid]	–	–
